For assay [1], the target named is Glutamate receptor 4 (Rattus norvegicus) (UniProt P19493). As to the kind of experiment: Displacement of [3H]-AMPA from AMPA in rat cortical synaptosomes assessed as remaining activity at 10 uM incubated for 30 mins by TopCount microplate scintillation counting method relative to control. The class given is subcellular. The following applies: Cortex, Synaptosome. In general terms: Loss of bound radioactivity is the signal in a displacement assay; it reports binding, not function.
Glutamate receptor 4 (Rattus norvegicus), sequence (P19493 whole entry): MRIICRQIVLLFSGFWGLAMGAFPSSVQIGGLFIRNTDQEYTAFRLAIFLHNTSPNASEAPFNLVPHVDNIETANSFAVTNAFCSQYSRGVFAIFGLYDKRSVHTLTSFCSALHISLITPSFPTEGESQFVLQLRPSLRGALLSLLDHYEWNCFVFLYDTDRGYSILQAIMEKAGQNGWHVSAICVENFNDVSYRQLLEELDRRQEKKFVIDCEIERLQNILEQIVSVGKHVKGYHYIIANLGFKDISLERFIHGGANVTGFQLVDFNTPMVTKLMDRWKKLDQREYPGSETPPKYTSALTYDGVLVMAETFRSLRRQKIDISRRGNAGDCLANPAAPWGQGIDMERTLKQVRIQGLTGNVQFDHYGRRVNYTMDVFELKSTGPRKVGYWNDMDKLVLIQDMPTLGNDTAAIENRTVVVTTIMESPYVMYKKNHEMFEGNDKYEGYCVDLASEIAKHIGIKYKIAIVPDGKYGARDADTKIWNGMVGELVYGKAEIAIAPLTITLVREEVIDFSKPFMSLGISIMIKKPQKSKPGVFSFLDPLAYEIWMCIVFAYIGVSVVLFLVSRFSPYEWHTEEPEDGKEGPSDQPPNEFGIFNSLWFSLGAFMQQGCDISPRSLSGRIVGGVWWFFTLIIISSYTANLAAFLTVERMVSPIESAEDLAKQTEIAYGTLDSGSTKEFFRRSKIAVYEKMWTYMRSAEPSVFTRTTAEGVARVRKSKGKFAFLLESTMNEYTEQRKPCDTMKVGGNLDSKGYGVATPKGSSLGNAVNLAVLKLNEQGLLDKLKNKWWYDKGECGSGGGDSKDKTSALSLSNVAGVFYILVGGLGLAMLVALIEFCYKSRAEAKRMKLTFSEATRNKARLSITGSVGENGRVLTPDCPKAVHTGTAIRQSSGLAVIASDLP

Assay [2] is described as follows: Displacement of [3H]-KA from KA in rat cortical synaptosomes incubated for 60 mins by TopCount microplate scintillation counting method. The format is subcellular, Cortex, Synaptosome.
For assay [3], the target named is Glutamate NMDA receptor (Rattus norvegicus) (UniProt P35439+Q00959+Q00960+Q00961+Q62645+Q8VHN2+Q9R1M7). As to the kind of experiment: Displacement of [3H]CGP39653 from NMDA receptor in rat cortical synaptosomes assessed as remaining activity at 10 uM incubated for 60 mins by Topcount microplate scintillation counting method relative to control. The format is subcellular. The following applies: Cortex, Synaptosome.

The target of assay [4] is Glutamate receptor ionotropic, kainate 1 (Rattus norvegicus) (UniProt P22756). As to the kind of experiment: Displacement of [3H]-NF608 from rat GluK1 assessed as percent of radioligand binding at 10 uM relative to control.
Glutamate receptor ionotropic, kainate 1 (Rattus norvegicus), sequence (P22756 whole entry): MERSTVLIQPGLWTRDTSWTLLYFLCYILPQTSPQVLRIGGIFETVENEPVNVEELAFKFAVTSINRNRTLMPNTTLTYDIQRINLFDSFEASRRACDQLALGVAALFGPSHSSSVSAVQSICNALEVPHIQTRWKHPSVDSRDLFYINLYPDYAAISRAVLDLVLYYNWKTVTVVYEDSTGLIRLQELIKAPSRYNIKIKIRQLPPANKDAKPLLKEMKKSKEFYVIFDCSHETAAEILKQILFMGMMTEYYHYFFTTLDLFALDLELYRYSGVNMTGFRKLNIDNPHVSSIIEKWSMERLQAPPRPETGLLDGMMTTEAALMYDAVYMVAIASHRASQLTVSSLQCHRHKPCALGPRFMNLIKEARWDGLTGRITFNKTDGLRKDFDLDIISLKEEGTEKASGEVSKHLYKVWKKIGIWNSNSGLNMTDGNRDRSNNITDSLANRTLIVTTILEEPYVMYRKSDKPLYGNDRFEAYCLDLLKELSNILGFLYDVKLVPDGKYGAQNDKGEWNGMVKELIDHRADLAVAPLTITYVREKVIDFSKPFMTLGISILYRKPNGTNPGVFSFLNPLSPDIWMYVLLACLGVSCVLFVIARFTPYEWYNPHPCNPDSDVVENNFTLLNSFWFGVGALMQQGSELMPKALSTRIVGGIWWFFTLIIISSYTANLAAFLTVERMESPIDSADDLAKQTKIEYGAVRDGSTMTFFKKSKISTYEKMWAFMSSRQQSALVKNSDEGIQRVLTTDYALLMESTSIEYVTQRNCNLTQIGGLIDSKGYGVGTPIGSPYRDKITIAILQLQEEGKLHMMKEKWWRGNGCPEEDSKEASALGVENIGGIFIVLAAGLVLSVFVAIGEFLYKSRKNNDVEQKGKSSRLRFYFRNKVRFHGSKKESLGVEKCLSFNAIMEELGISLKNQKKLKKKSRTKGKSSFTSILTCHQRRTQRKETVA
In assay [5] the target is Glutamate receptor ionotropic, kainate 2 (Rattus norvegicus) (UniProt P42260). As to the kind of experiment: Displacement of [3H]-KA from rat GluK2 assessed as percentage of radioligand binding at 10 uM relative to control.
Glutamate receptor ionotropic, kainate 2 (Rattus norvegicus), sequence (P42260 whole entry): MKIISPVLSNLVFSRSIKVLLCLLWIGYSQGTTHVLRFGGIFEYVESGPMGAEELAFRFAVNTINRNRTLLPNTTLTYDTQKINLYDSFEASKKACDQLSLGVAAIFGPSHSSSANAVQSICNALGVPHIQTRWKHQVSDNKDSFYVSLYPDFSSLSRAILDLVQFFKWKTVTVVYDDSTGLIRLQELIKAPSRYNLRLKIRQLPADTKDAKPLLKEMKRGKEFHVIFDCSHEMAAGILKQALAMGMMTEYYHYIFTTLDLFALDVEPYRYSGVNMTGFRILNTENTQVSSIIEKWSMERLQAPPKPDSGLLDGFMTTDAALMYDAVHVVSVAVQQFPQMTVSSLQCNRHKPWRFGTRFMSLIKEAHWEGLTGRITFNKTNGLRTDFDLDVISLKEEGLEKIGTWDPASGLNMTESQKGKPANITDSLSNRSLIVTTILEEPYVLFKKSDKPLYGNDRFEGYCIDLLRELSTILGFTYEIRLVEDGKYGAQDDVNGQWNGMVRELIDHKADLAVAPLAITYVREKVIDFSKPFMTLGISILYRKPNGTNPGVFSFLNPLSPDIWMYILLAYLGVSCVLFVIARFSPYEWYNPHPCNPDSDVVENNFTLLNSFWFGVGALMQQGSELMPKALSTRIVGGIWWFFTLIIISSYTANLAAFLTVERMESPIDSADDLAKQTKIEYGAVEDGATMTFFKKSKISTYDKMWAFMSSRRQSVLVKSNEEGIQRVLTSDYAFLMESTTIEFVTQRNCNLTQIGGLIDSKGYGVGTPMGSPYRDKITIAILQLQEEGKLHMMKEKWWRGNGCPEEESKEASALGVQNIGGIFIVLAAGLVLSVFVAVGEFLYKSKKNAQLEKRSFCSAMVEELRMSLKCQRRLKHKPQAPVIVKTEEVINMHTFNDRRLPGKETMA
Assay [6] deals with Glutamate receptor ionotropic, kainate 3 (Rattus norvegicus) (UniProt P42264). As to the kind of experiment: Displacement of [3H]-KA from rat GluK3 assessed as percentage of radioligand binding at 10 uM relative to control.
Glutamate receptor ionotropic, kainate 3 (Rattus norvegicus), sequence (P42264 whole entry): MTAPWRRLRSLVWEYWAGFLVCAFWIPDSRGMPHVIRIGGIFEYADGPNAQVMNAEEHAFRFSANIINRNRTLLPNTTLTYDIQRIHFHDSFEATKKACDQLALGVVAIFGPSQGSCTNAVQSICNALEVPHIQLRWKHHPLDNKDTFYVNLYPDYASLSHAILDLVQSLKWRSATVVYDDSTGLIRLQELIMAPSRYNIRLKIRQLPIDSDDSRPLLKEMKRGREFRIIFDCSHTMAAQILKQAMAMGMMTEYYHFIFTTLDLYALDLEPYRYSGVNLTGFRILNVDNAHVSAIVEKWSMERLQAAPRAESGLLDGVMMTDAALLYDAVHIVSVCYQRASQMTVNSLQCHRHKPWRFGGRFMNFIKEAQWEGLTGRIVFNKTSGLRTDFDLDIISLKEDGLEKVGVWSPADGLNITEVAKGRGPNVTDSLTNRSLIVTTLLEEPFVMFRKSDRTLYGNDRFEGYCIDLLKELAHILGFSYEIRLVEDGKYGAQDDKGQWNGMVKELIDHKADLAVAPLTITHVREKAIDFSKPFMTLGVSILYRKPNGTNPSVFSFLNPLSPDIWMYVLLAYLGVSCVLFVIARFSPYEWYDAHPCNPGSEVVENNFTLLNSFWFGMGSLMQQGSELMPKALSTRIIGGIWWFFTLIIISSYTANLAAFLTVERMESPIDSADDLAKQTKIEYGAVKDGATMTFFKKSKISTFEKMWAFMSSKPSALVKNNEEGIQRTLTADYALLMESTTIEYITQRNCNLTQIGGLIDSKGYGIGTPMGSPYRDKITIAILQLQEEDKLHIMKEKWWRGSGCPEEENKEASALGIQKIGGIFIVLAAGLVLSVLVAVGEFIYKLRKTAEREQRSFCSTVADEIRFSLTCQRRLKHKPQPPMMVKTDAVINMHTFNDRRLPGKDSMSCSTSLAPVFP
Assay [7] has as its target T1, Glutamate receptor ionotropic, kainate 5 (Mus musculus, UniProt Q61626).
T1 sequence (Q61626 whole entry): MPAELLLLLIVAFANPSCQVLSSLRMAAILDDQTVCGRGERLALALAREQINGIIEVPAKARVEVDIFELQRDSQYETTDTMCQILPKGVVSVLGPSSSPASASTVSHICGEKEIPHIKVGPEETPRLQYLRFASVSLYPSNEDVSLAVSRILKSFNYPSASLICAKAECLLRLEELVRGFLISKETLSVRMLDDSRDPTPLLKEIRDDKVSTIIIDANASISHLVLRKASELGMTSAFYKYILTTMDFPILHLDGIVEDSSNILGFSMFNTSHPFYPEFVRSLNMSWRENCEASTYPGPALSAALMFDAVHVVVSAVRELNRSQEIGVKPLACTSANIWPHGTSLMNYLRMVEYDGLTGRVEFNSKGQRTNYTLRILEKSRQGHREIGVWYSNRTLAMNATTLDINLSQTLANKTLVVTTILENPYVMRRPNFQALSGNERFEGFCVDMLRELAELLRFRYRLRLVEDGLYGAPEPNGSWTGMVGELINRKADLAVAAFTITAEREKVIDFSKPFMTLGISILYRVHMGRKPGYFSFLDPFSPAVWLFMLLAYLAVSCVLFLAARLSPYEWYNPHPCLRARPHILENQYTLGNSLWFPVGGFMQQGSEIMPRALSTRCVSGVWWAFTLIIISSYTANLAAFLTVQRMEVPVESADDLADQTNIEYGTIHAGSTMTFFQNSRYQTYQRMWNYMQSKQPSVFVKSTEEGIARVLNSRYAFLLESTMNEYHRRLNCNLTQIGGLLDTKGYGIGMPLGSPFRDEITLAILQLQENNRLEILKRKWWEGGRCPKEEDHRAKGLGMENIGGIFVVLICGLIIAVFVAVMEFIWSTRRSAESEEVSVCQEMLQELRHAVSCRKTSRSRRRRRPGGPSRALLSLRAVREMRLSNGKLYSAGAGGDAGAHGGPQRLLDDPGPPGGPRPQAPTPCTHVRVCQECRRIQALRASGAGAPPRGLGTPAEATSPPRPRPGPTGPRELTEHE
As to the kind of experiment: Displacement of [3H]-kainate from mouse GluK5 expressed in Sf9 cell membrane incubated for 2 hrs by scintillation counting method. The class given is cell membranes.

Assay [8] deals with T2, Glutamate receptor 4 (Rattus norvegicus, UniProt P19493). Kind of assay: Displacement of [3H]-AMPA from AMPA in rat brain membrane preincubated for 15 mins followed by [3H]-AMPA addition and measured after 40 mins by scintillation counting method. The format is cell membranes.
T2 sequence (P19493 whole entry): as the sequence (P19493 whole entry) above
Assay [9] can be described thus: Displacement of [3H]-Kainic acid from KA in rat brain membrane preincubated for 15 mins followed by [3H]-Kainic acid addition and measured after 1 hr by scintillation counting method. The class given is cell membranes.
The nature of assay [10]: Binding affinity to KA receptor in rat synaptosomes. The class given is subcellular, Synaptosome.
For another assay, the target named is Glutamate NMDA receptor. As to the kind of experiment: Displacement of [3H]CGP39653 from NMDA receptor in rat cortical synaptosomes incubated for 60 mins by Topcount microplate scintillation counting method. The class given is subcellular, Cortex, Synaptosome.
Assay [11] has as its target T2, Glutamate receptor 4. Kind of assay: Displacement of [3H]-AMPA from AMPA in rat synaptic membrane. The class given is subcellular, Synaptosome.
The nature of assay [12]: Displacement of [3H]-Kainic acid from KA in rat synaptic membrane. The class given is subcellular, Synaptosome.
The species named for another assay is Rattus norvegicus. Kind of assay: Displacement of [3H]-KA from KA in rat cortical synaptosomes assessed as remaining activity at 10 uM incubated for 60 mins by TopCount microplate scintillation counting method relative to control. The class given is subcellular. The settings on record: Cortex, Synaptosome.
The target in assay [13] is T3, Glutamate receptor ionotropic, kainate 5 (Mus musculus) (UniProt Q61626).
T3 sequence (whole entry): T1 sequence (Q61626 whole entry)
Kind of assay: Displacement of [3H]-kainate from mouse GluK5 expressed in Sf9 cell membrane assessed as remaining activity at 10 uM incubated for 2 hrs by scintillation counting method relative to control. The class given is cell membranes.

Another assay relates to Hippocampus. Kind of assay: Reduction in CA1 spike amplitude in Wistar rat hippocampal slices after 20 mins of toxin administration. The format is functional, tissue-based.
For assay [14], the target named is Glutamate receptor ionotropic, kainate 1 (Rattus norvegicus, UniProt P22756). As to the kind of experiment: Displacement of [3H]-NF608 from rat GluK1.
Glutamate receptor ionotropic, kainate 1, sequence (P22756 whole entry): as the sequence (P22756 whole entry) above
The target of assay [15] is Glutamate receptor ionotropic, kainate 2 (Rattus norvegicus, UniProt P42260). As to the kind of experiment: Displacement of [3H]-KA from rat GluK2.
Glutamate receptor ionotropic, kainate 2, sequence (P42260 whole entry): as the sequence (P42260 whole entry) above
Assay [16] addresses Glutamate receptor ionotropic, kainate 3 (Rattus norvegicus, UniProt P42264). As to the kind of experiment: Displacement of [3H]-KA from rat GluK3.

Consider 27 compounds from ChEMBL document CHEMBL5576145, “Domoic Acid as a Lead for the Discovery of the First Selective Ligand for Kainate Receptor Subtype 5 (GluK5)” (J Med Chem, 2024).

Glutamate receptor ionotropic, kainate 3, sequence (P42264 whole entry): as the sequence (P42264 whole entry) above

For orientation: IC50 means the concentration that gives 50% inhibition. One may read the Ki as the equilibrium dissociation constant of an inhibitor or competing ligand from its target. A lower Ki goes with a stronger hold on the target. For `O=C(O)C[C@@H]1[C@@H](C(=O)O)NC[C@@H]1n1nncc1CCc1ccccc1`, the Activity in [1] worked out at 98%; in assay [3], 98%; in [4], 94%; in assay [5] it was 97%; in assay [6] it was 90%. In assay [2], the concentration for half-maximal inhibition (IC50) was determined as 35 µM. The same compound had an inhibition constant Ki in assay [7] of 5.57 µM.
For `C/C(=C\C=C\[C@@H](C)C(=O)O)[C@H]1CN[C@H](C(=O)O)[C@H]1CC(=O)O` [DOMORIC ACID], the IC50 at Glutamate receptor 4 [8] was found to be 12 µM; in [9], 0.94 µM.
`Nc1nc([C@H]2CN[C@H](C(=O)O)[C@H]2CC(=O)O)cs1` returned a concentration for half-maximal inhibition (IC50) in assay [10] of 0.005 µM.
As for `O=C(O)C[C@@H]1[C@@H](C(=O)O)NC[C@@H]1n1nncc1-c1cccc(C(F)(F)F)c1`, the Activity in assay [1] stood at 80%; in [4] it was 92%; in assay [5], 76%; in assay [6], 90%. The IC50 in assay [2] came to 5.1 µM. Besides, the Ki on Glutamate NMDA receptor amounted to 101 µM; in assay [7], 2.15 µM.
Consider `COc1cccc(-c2cnnn2[C@H]2CN[C@H](C(=O)O)[C@H]2CC(=O)O)c1`, for which the Activity worked out at 88% in assay [4], 89% in assay [5] and 74% in assay [6]. In addition, the affinity in assay [7], expressed as Ki, was 1.02 µM.
For `O=C(O)C[C@@H]1[C@@H](C(=O)O)NC[C@@H]1n1nncc1-c1cccc(F)c1` the same measures were 60%, 76%, 58% and 1.76 µM.
On to `C=C(C)[C@H]1CN[C@H](C(=O)O)[C@H]1CC(=O)O` [KAINIC ACID], for which the IC50 was 1.9 µM at Glutamate receptor 4 [11] and 0.012 µM in assay [12].
In the case of `Nc1cccc(-c2cn([C@H]3CN[C@H](C(=O)O)[C@H]3CC(=O)O)nn2)c1`, the Activity in assay [4] is 97%; in assay [5] it was 102%; in assay [6], 93%. Moreover, the Ki in assay [7] stood at 3.25 µM.
On to `NCc1cnnn1[C@H]1CN[C@H](C(=O)O)[C@H]1CC(=O)O`, for which the Activity in [1] stood at 100%; in the assay filed under Rattus norvegicus, 76%; in assay [3], 92%; in assay [4], 95%; in assay [5], 79%; in assay [6], 81%. Also, the Activity in assay [13] came to 85%.
`Cc1nc([C@H]2CN[C@H](C(=O)O)[C@H]2CC(=O)O)cs1` registered an IC50 in assay [10] of 0.006 µM.
On to `O=C(O)C[C@@H]1[C@@H](C(=O)O)NC[C@@H]1c1ccc(C(=O)O)[nH]c1=O`, for which the IC50 at Glutamate receptor 4 [11] was 0.06 µM; in assay [12], 0.33 µM.
Consider `C/C(=C/CC[C@@H](C)C(=O)O)[C@H]1CN[C@H](C(=O)O)[C@H]1CC(=O)O`, for which the IC50 on Glutamate receptor 4 [8] turned out to be 3.6 µM; in assay [9] it was 0.009 µM.
Broadly, the EC50 is the concentration needed to bring the measured effect to its halfway point. A lower EC50 goes with a more potent agent. In the case of `C=C(CC/C=C(\C)C(=O)O)[C@H]1CN[C@H](C(=O)O)[C@H]1CC(=O)O`, the EC50 with Hippocampus worked out at 3.71 µM.
Consider `O=C(O)C[C@@H]1[C@@H](C(=O)O)NC[C@@H]1n1nncc1-c1ccc(F)cc1F`, for which the Activity is 96% in [4], 73% in [5] and 90% in assay [6]. This compound gave a Ki in [7] of 5.35 µM.
For the compound `CCc1ccc(-c2cnnn2[C@H]2CN[C@H](C(=O)O)[C@H]2CC(=O)O)cc1`, the Activity in assay [4] came to 95%; in assay [5] it was 92%; in assay [6] it was 83%; in assay [13], 45%.
The like results for `O=C(O)C[C@@H]1[C@@H](C(=O)O)NC[C@@H]1n1nncc1-c1ccc(C(F)(F)F)cc1` were, in that order, 95%, 103%, 85% and 62%.
For `O=C(O)C[C@@H]1[C@@H](C(=O)O)NC[C@@H]1n1nncc1Cc1ccccc1`, the Activity was found to be 86% in assay [1]; 79% in the assay filed under Rattus norvegicus; 87% in [3]; 99% in assay [4]; 92% in [5]; 94% in assay [6]. In [7], this compound had an inhibitory constant (Ki) of 11.1 µM.
`O=C(O)C[C@@H]1[C@@H](C(=O)O)NC[C@@H]1c1ccccc1O`: the figures for the half-inhibitory concentration (IC50) (on Glutamate receptor 4 [11]; in assay [12]) were 0.13 µM and 0.058 µM, respectively.
As to `C[C@H](CCC[C@@H](C)[C@H]1CN[C@H](C(=O)O)[C@H]1CC(=O)O)C(=O)O`, the figures for the concentration for half-maximal inhibition (IC50) (on Glutamate receptor 4 [8]; in assay [9]) were greater than 100 µM and 27 µM, respectively.
`O=C(O)C[C@@H]1[C@@H](C(=O)O)NC[C@@H]1n1nncc1CN1CCS(=O)(=O)CC1`: the Activity in [4] was determined as 97%; in assay [5], 80%; in assay [6], 91%; in assay [13], 94%.
For `O=C(O)C[C@@H]1[C@@H](C(=O)O)NC[C@@H]1n1nncc1-c1cccnc1` the same measures were 98%, 92%, 80% and 47%.
On to `O=C(O)CCCc1cnnn1[C@H]1CN[C@H](C(=O)O)[C@H]1CC(=O)O`, for which the Activity in assay [1] worked out at 86%; in assay [3], 90%. In assay [2], this compound returned an IC50 of 2.3 µM. The inhibition constant (Ki) came out at 10.8 µM in assay [14], 7.79 µM in assay [15], 6.1 µM in assay [16] and 0.483 µM in [7].
Regarding `C/C(=C/C=C\[C@@H](C)C(=O)O)[C@H]1CN[C@H](C(=O)O)[C@H]1CC(=O)O`, the concentration for half-maximal inhibition (IC50) at Glutamate receptor 4 [8] is 17 µM; in assay [9] it was 0.028 µM.
For the compound `O=C(O)C[C@@H]1[C@@H](C(=O)O)NC[C@@H]1n1nncc1C(=O)O`, the Activity in assay [1] amounted to 85%; in the assay filed under Rattus norvegicus it was 80%; in [3], 66%; in assay [4], 79%; in [5], 85%; in assay [6] it was 79%. Further, the Activity in [13] was found to be 89%.
Consider `O=C(O)C[C@@H]1[C@@H](C(=O)O)NC[C@@H]1n1nncc1-c1ccccn1`, for which the Ki in [14] turned out to be 11.5 µM; in [15] it was 7.76 µM; in assay [16], 3.75 µM; in assay [7], 0.258 µM.
For `O=C(O)C[C@@H]1[C@@H](C(=O)O)NC[C@@H]1n1nncc1CO`, the Activity in assay [1] was 86%; in [3] it was 102%; in [4] it was 94%; in assay [5] it was 76%; in [6], 84%. Moreover, the IC50 in assay [2] amounted to 22 µM. In assay [7], this compound showed an inhibition constant (Ki) of 7.97 µM.
In the case of `C/C(=C/C=C/[C@H](C)C(=O)O)[C@H]1CN[C@H](C(=O)O)[C@H]1CC(=O)O`, the IC50 on Glutamate receptor 4 [8] is 5.7 µM; in [9] it was 0.028 µM.
